In publication PMC10376064, “ABC Transporter C1 Prevents Dimethyl Fumarate from Targeting Alzheimer’s Disease” (Biology, 2023):

Target: T1, ABCC1 (Homo sapiens, UniProt P33527)
T1 construct: membrane preparation of ABCC1-expressing H69AR cells
Experiment: vanadate-sensitive ATPase stimulation in H69AR membranes; daunorubicin and rhodamine […] transport inhibition in H69AR cells
Type: cell-based

T1 sequence (P33527 whole entry): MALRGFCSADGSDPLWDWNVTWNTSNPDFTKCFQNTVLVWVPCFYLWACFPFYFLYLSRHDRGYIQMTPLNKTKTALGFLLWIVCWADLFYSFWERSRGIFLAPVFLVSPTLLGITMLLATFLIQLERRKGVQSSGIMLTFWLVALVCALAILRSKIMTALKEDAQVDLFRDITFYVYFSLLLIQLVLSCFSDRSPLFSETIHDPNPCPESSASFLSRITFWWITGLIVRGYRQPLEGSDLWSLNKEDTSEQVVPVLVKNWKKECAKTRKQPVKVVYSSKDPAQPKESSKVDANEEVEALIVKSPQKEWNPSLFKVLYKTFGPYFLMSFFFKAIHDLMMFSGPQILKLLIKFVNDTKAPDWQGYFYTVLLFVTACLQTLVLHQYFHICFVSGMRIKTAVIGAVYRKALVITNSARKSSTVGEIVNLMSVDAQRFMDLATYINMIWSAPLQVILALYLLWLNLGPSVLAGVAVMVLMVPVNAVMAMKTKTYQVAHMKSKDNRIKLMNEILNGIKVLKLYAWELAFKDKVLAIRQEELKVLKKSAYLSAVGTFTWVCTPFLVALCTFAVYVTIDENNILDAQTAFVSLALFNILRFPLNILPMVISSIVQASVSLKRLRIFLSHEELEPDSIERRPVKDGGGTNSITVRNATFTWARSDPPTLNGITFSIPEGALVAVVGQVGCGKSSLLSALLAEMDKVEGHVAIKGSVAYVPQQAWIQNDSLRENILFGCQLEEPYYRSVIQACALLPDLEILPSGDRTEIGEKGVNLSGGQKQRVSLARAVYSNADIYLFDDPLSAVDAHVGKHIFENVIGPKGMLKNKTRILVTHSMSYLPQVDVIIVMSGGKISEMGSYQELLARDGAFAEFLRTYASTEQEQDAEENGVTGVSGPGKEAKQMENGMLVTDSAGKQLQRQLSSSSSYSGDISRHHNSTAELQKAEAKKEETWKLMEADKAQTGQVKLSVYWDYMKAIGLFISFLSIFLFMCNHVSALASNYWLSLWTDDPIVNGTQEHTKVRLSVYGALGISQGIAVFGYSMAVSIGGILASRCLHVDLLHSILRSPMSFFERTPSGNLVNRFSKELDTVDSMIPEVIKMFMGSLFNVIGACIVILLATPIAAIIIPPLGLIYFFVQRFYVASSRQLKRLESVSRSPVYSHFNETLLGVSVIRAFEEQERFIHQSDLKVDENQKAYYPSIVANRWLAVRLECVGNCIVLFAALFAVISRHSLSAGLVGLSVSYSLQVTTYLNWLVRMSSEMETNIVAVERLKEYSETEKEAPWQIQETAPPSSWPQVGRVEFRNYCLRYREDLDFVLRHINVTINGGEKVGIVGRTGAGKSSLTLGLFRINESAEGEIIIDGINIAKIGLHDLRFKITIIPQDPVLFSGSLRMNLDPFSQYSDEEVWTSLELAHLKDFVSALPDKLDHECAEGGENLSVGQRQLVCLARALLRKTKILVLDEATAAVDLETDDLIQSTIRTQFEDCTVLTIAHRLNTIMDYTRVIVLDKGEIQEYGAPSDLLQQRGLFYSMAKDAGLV

- vanadate-sensitive ATPase stimulation in H69AR membranes; daunorubicin and rhoda: ~ 200 µM
Compound: COC(=O)CC(SC[C@H](NC(=O)CC[C@H](N)C(=O)O)C(=O)NCC(=O)O)C(=O)OC (stereo partly shown) [compound 9, DMS-SG]
